Measured values reported in patent US20250375465A1, “METHODS FOR AFFECTING TISSUE-RESIDENT T CELLS” (THE TRUSTEES OF THE UNIVERSITY OF PENNSYLVANIA, priority 2024, published 2025).
“Also recorded” adds a separate entry of the source.

Experiments:
[1] = test system: acute myeloid leukemia (AML) cells; settings: FIG. 6A; data extracted from J Clin Invest. 2022; 132 (16): e153514; cited from earlier work
primary leukemia cells = settings: FIG. 6B; data extracted from J Clin Invest. 2022; 132 (16): e153514; cited from earlier work
[2] = test system: TRM isolated from healthy human skin; test: Viability of skin TRM versus blood T cells after GSPT1 degrader treatment (FIG. 10D); type: cell-based; settings: 72 hours of treatment, n=6
Procedure: (§1) Given that GSPT1-degrading small-molecules are already advancing through early-phase trials for cancer, it was tested whether targeting GSPT1 could selectively affect TRM in vitro. TRM were isolated from healthy human skin (n=6) and their sensitivity was to the GSPT1-degrading drug CC-90009 with that of human blood T cells. […] In a similar study, another small molecule GSPT1 degrader, MRT-2359, was used to treat peripheral blood T cells from normal human donors for 24 hours in vitro at various concentrations.

primary human T cells = test: Kill curve in primary human (circulating) T cells, celltiter glow viability assay (FIG. 6C); type: cell-based; settings: for apoptosis / killing of primary human T cells: FIG. 6C, 3 days incubation
Procedure: (Data extracted from J Clin Invest. 2022; 132 (16): e153514). FIG. 6C: in contrast to the AML cells, circulating T cells required about 100-fold higher dose of the GSPT-1 degrader to be depleted. The GSPT-1 degrader used in FIG. 6C is C90009, the same drug as in FIGS. 6A-6B. Blue curve: kill curve with MRT-2359. Primary human T cells were incubated with indicated doses for 3 days followed by viability quantification using a standard celltiter glow assay. Survival was quantified relative to T cells from the same donor treated with DMSO.

GSPT1 = molecular target: T1, GSPT1 (Homo sapiens, UniProt P15170+Q96SW2); test: Western blot of GSPT1 protein in primary human T cells after degrader treatment (FIGS. 13A-13B); type: cell-based; settings: primary human peripheral blood T cells, 24 hours in vitro, compared to DMSO control
T1 construct: GSPT1 protein in primary human T cells isolated from peripheral blood; endogenous in cells; host or cells: primary human T cells from peripheral blood of normal donors
Procedure: FIGS. 13A-13B illustrate degradation of GSPT1 in primary human T cells using CC-90009 and MRT-2359. FIG. 13A is a Western blot analysis of GSPT1 protein in primary human T cells isolated from peripheral blood. T cells were treated with indicated concentrations of GSPT1 degrader for 24 hours in vitro. GSPT1 protein was detected with a monoclonal anti-GSPT1 antibody. FIG. 13B is a graph quantifying GSPT1 protein remaining after degrader treatment as shown in FIG. 13A compared to a DMSO negative control.
as §1

T1 sequence (P15170 whole entry): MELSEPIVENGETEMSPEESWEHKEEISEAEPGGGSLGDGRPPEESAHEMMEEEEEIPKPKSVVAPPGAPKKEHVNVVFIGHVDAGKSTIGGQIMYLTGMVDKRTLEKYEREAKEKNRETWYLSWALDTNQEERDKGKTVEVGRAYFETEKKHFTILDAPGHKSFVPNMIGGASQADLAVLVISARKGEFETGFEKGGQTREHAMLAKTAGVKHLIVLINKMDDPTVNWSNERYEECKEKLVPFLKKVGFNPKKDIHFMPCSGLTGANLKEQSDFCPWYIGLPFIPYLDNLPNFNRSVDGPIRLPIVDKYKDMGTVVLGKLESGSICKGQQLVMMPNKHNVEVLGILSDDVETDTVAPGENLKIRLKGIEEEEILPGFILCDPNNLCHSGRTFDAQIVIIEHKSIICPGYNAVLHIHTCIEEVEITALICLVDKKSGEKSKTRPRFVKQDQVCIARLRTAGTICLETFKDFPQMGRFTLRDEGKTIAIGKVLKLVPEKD
T1 sequence (Q96SW2 whole entry): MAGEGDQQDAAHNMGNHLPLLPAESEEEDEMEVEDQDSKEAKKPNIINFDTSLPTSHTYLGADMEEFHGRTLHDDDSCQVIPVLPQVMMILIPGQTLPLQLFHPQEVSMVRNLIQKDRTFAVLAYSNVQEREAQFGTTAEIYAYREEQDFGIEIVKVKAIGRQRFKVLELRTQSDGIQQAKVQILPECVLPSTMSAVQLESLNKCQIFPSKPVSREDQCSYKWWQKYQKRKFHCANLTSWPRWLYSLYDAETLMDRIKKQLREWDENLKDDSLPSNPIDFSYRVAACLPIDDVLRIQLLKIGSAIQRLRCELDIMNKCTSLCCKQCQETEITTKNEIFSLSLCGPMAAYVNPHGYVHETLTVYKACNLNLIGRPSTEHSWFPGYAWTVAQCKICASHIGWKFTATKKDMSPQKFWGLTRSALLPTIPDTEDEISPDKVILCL
T1 sequence (Q16531 whole entry partner): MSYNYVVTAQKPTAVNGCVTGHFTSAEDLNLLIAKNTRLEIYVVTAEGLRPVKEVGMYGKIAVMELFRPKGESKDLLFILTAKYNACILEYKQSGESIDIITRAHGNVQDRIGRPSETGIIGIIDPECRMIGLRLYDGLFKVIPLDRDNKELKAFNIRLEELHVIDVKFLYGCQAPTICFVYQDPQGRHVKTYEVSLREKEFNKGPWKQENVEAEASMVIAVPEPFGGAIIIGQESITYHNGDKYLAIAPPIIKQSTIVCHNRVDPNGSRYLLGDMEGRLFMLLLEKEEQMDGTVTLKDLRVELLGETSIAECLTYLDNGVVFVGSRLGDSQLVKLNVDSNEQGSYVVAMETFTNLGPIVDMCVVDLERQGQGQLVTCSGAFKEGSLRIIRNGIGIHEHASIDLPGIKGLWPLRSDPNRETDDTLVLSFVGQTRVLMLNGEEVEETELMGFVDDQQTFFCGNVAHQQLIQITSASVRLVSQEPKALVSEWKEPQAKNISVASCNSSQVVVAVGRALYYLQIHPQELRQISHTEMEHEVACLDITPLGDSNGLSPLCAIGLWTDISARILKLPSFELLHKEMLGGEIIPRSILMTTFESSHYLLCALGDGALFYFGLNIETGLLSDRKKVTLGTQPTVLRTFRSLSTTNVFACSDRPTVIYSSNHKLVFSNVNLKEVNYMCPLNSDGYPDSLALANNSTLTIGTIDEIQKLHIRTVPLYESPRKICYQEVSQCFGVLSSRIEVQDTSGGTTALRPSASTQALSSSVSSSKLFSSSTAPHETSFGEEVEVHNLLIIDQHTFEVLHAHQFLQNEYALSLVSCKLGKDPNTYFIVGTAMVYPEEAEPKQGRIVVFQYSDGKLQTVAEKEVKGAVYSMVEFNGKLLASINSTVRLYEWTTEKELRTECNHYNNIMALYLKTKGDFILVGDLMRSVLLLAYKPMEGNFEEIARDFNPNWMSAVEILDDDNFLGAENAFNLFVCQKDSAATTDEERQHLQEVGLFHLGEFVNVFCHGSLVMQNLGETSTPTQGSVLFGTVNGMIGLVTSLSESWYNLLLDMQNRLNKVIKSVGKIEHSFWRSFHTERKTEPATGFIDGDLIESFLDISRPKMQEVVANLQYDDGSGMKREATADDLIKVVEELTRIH

Row | SMILES | depletion / apoptosis of AML cells [1] | depletion / apoptosis of primary leukemia cells (primary leukemia cells) | viability of skin TRM compared with circulating T cells [2] | dosage required for same level of apoptosis in primary (circulating) T cells versus cells of FIGS. 6A-6B (primary human T cells; FIG. 6C versus FIGS. 6A-6B) | apoptosis / killing of primary human T cells (primary human T cells) | dose required to deplete circulating T cells relative to AML cells (primary human T cells; primary human T cells incubated 3 days, survival relative to DMSO, compared with FIGS. 6A-6B) | GSPT1 protein remaining after degrader treatment (GSPT1)
1 | O=C1CCC(N2Cc3cc(CNC(=O)C(F)(F)c4ccc(Cl)cc4)ccc3C2=O)C(=O)N1 (stereo not drawn) [CC-90009] | dose-dependent apoptosis; also recorded: dose-dependent depletion | dose-dependent apoptosis; also recorded: dose-dependent depletion | reduced viability | dramatically increased | does apoptosis | about 100 fold | significant dose-dependent loss of GSPT1 protein; also recorded: dose-dependent downregulation of GSPT1 protein
2 | O=C1CCC(N2Cc3ccc(COC(=O)Nc4cc(OC(F)(F)F)ccc4F)cc3C2=O)C(=O)N1 (stereo not drawn) [MRT-2359] | – | – | – | – | does apoptosis | – | significant dose-dependent loss of GSPT1 protein; also recorded: dose-dependent downregulation of GSPT1 protein
